BindingDB's records for doi:10.1016/j.bmc.2006.06.019 (University of Tennessee Health Science Center, 2006)

Biological target: T1, Androgen receptor (Rattus norvegicus, UniProt P15207)
T1 sequence (P15207 whole entry): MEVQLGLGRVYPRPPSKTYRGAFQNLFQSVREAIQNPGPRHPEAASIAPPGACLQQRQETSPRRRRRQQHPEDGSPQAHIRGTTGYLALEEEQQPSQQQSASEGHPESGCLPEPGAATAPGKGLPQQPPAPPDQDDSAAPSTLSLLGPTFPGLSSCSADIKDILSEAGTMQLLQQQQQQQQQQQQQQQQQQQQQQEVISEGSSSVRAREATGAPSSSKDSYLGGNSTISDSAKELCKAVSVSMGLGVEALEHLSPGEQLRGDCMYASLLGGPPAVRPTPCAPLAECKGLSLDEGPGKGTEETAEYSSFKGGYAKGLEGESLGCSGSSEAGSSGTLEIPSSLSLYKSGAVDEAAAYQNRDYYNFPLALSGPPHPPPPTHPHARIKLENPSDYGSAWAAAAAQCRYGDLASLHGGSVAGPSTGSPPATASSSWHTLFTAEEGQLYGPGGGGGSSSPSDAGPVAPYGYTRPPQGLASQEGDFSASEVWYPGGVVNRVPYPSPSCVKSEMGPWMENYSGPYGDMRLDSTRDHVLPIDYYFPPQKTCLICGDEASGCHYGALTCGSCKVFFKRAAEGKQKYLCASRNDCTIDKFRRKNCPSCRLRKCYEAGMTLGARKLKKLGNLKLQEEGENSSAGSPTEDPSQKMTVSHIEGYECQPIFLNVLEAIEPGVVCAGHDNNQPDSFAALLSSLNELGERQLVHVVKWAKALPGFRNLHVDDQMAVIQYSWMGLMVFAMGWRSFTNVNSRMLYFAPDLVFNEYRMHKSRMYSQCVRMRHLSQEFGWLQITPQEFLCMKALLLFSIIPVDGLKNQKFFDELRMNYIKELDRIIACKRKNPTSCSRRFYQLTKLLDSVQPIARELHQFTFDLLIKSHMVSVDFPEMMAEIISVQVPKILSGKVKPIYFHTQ
Test: Competitive Radioligand Displacement Assay
Settings: pH 7.4; 4 °C
Experimental: The Ki values were determined by the application of the Cheng-Prusoff equation: Ki = (IC50 x Kd)/(Kd+[L]) where [L] is the concentration of [3H]MIB (1 nM ) and Kd is the dissociation constant of the [3H]MIB determined in the saturation analysis (Kd=0.19 nM for MIB).

| SMILES | Ki [nM] |
| --- | --- |
| C[C@@](O)(COc1ccc(N=C=S)cc1)C(=O)Nc1ccc([N+](=O)[O-])c(C(F)(F)F)c1 [(2R)-2-hydroxy-3-(4-isothiocyanatophenoxy)-2-methyl-N-[4-nitro-3-(trifluoromethyl)phenyl]propanamide] | 36.2 |
| C[C@](O)(CSc1ccc(N=C=S)cc1)C(=O)Nc1ccc([N+](=O)[O-])c(C(F)(F)F)c1 [(2R)-2-hydroxy-3-[(4-isothiocyanatophenyl)sulfanyl]-2-methyl-N-[4-nitro-3-(trifluoromethyl)phenyl]propanamide] | 54.8 |
| C[C@](O)(COc1ccc(N=C=S)c(F)c1)C(=O)Nc1ccc([N+](=O)[O-])c(C(F)(F)F)c1 [(2S)-3-(3-fluoro-4-isothiocyanatophenoxy)-2-hydroxy-2-methyl-N-[4-nitro-3-(trifluoromethyl)phenyl]propanamide] | 12.6 |
